Holding throughout (type): functional, cell-based
Assay [1] concerns HCT-116. The experiment in a line: Cytotoxicity against human HCT116 cells after 96 hrs by MTT assay. The conditions noted are these: for pIC50: HCT-116, 96 h. On the technique in general: Tetrazolium assays rely on reduction of a dye to a coloured formazan, in cell work by metabolically active cells.
For assay [2], the system named is HepG2. The experiment in a line: Cytotoxicity against human HepG2 cells after 96 hrs by MTT assay. The conditions noted are these: for pIC50: HepG2, 96 h.
For assay [3], the system named is MCF7. The assay can be described thus: Cytotoxicity against human MCF7 cells after 96 hrs by MTT assay. The conditions noted are these: for pIC50: MCF7, 96 h.

Structures are written as SMILES. pIC50: −log10 of the molar value.

In the case of `COc1cccc2c1C(=O)c1c(O)c3c(c(O)c1C2=O)C[C@@](O)(C(=O)CO)C[C@@H]3O[C@H]1C[C@H](N)[C@H](O)[C@H](C)O1` [DOXORUBICIN], the pIC50 was 5.59 in assay [1], 5.57 in assay [2] and 5.61 in assay [3].
`CC[C@H](CC[C@@H](C)[C@H]1CC[C@H]2[C@@H]3CC(=O)N(CCO)[C@H]4C[C@@H](OC(C)=O)CC[C@]4(C)[C@H]3CC[C@]12C)C(C)C`: the Activity entry in assay [1], in assay [2] and in assay [3] was “Dose-dependent effect” each time. Besides, the negative logarithm of the IC50 (pIC50) in assay [1] was 5.37; in assay [2], 5.34; in assay [3], 5.52.
Regarding `CC[C@H](CC[C@@H](C)[C@H]1CC[C@H]2[C@@H]3CC(=O)[C@H]4C[C@@H](Cl)CC[C@]4(C)[C@H]3CC[C@]12C)C(C)C`, the negative-log IC50 (pIC50) is 5.50 in assay [1], 5.45 in assay [2] and 5.52 in assay [3].
Turning to `CC[C@H](CC[C@@H](C)[C@H]1CC[C@H]2[C@@H]3CC(=O)N(CCO)[C@H]4C[C@@H](Cl)CC[C@]4(C)[C@H]3CC[C@]12C)C(C)C`, the Activity entry in assay [1], in assay [2] and in assay [3] was “Dose-dependent effect” each time. The pIC50 was 5.57 in assay [1], 5.52 in assay [2] and 5.59 in assay [3].
Consider `CC[C@H](CC[C@@H](C)[C@H]1CC[C@H]2[C@@H]3CC(=O)[C@H]4C[C@@H](OC(C)=O)CC[C@]4(C)[C@H]3CC[C@]12C)C(C)C`, for which the negative logarithm of the IC50 (pIC50) in assay [1] was 5.30; in assay [2], 5.31; in assay [3] it was 5.45.
Taken in the same sequence, the figures for `CC[C@H](CC[C@@H](C)[C@H]1CC[C@H]2[C@@H]3CC(=O)[C@H]4CCCC[C@]4(C)[C@H]3CC[C@]12C)C(C)C` were 5.35, 5.28 and 5.48.
On to `CC[C@H](CC[C@@H](C)[C@H]1CC[C@H]2[C@@H]3CC(=O)N(CCO)[C@H]4CCCC[C@]4(C)[C@H]3CC[C@]12C)C(C)C`, for which the Activity result in assay [1], in assay [2] and in assay [3] was “Dose-dependent effect” each time. In addition, the pIC50 is 5.40 in assay [1], 5.33 in assay [2] and 5.53 in assay [3].

As usually defined, the pIC50 is −log10 of the IC50, conventionally taken in molar units. Read a low pIC50 as a large IC50.
